Active and inactive are the calls of the source. No rule for the calls is given here.

This assay has as its target Serine/threonine-protein kinase mTOR (Homo sapiens) (UniProt P42345). Briefly: mTOR FRB domain ligand binding – biophysical, NMR (AID 1648). The conditions noted are these: NMR binding to FRB domain, chemical shift.

Sequence of Serine/threonine-protein kinase mTOR (Homo sapiens) (P42345 2015-2114): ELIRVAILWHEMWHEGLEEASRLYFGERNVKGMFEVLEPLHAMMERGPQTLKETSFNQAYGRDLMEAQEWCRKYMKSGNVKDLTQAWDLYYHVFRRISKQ

By Kd is commonly meant a measure of binding affinity in units of concentration. `Cn1ncc2c(=O)n(CC(=O)c3ccccc3)cnc21`: the Kd is > 4 mM (inactive).

In the case of `COc1cc2c3cc1Oc1cc(ccc1O)C[C@@H]1c4c(cc(OC)c(O)c4Oc4ccc(cc4)C[C@@H]3N(C)CC2)CC[N+]1(C)C`, the Kd is > 4 mM (inactive).

For the molecule `C[C@H](CCC(=O)O)[C@H]1CCC2C3C(CC[C@@]21C)[C@@]1(C)CC[C@@H](O)C[C@H]1C[C@@H]3O` (stereo partly drawn), the Kd is > 4 mM (inactive).

As to `O=c1c(O)cc([C@H]2Oc3cc(O)cc(O)c3C[C@H]2O)cc2c([C@H]3Oc4cc(O)cc(O)c4C[C@H]3O)cc(O)c(O)c12`, the Kd is > 4 mM (inactive).

As for `CC(=O)NC1C(=O)Nc2c(C)cc(C)cc21` (stereo not drawn), the Kd is > 4 mM (inactive).

Regarding `Cc1cc(S(=O)(=O)N2CCOCC2)ccc1F`, the Kd was > 4 mM (inactive).

On to `Cn1c(=O)n(C)c2cc(C(N)=O)ccc21`, for which the Kd was > 4 mM (inactive).

Take `OC1CCN(c2nccc(C(F)(F)F)n2)CC1`: the Kd was > 4 mM (inactive).

For the molecule `Cn1c(=O)[nH]c(=O)c2c1ncn2CCN1CCCCC1`, the Kd is > 4 mM (inactive).

As for `Cn1c(=O)c2[nH]cnc2n(C)c1=O`, the Kd was > 4 mM (inactive).

Regarding `O=c1c(-c2ccc(O)cc2)coc2cc(O)ccc12`, the Kd was > 4 mM (inactive).

In the case of `OCCN1CCN(C(=S)c2ccc(Cl)cc2)CC1`, the Kd is > 4 mM (inactive).

In the case of `Cc1ccccc1CSc1nnc(C)n1N`, the Kd was > 4 mM (inactive).

For the molecule `O=C1CC(c2c[nH]c3ccccc23)C(=O)N1` (stereo not drawn), the Kd was > 4 mM (inactive).

As for `c1ccc(-c2nc3ccccc3nc2-c2ccccn2)nc1`, the Kd is > 4 mM (inactive).

`COc1c(-c2coc3cc4c(cc3c2=O)CC(O)C(C)(C)O4)ccc2c1C=CC(C)(C)O2` (stereo not drawn): the Kd was > 4 mM (inactive).

Consider `C/C=C(\C)c1nnc(NC(=O)C(C)C)s1`, for which the Kd was > 4 mM (inactive).

In the case of `CNC(=O)c1cccc(NC(=S)NC)c1`, the Kd was > 4 mM (inactive).

`COc1ccc(-c2nnc(-c3ccc(N)cc3)o2)cc1`: the Kd is > 4 mM (inactive).

Turning to `CON(C)C(=O)Nc1ccc(Cl)cc1`, the Kd is > 4 mM (inactive).

On to `CCN1CCn2c1nc(N1CCOCC1)nc2=O`, for which the Kd was > 4 mM (inactive).

With `COC(=O)C(O)c1ccccc1` (stereo not drawn), the Kd was > 4 mM (inactive).

As for `Cn1c(CO)nc2cc(N)ccc21`, the Kd is > 4 mM (inactive).

Turning to `O=C(O)c1scc2c1CCCC2`, the Kd is > 4 mM (inactive).

As to `Nc1cc(C(=O)O)ccc1N1CCCCCC1`, the Kd is > 4 mM (inactive).

Turning to `O=C(OCc1c(Cl)cccc1Cl)c1cnccn1`, the Kd was > 4 mM (inactive).

Turning to `COc1ccc2nc(NC(=O)c3cnccn3)sc2c1`, the Kd was > 4 mM (inactive).

`Nc1ccccc1C(=O)N1CCNC(=O)C1`: the Kd was > 4 mM (inactive).

As for `Oc1cccc(N2CCOCC2)c1`, the Kd was > 4 mM (inactive).

With `c1ccc(CCc2nc(-c3ccncc3)no2)cc1`, the Kd is > 4 mM (inactive).

With `Cc1cc(SCCF)n2ncnc2n1`, the Kd was > 4 mM (inactive).

As to `CC(=O)N=c1cccc(NC(C)=O)n1O`, the Kd is > 4 mM (inactive).

Turning to `NC(c1ccccc1)c1ccccn1` (stereo not drawn), the Kd was > 4 mM (inactive).

For `O=C(Cc1cccs1)Nc1ccccn1`, the Kd was > 4 mM (inactive).

In the case of `C[C@@H]1CC[C@@]23CCC4(C)[C@@](C=CC5[C@@]6(C)CC[C@H](O)C(C)(C)C6CC[C@]54C)(OC2=O)C3[C@H]1C` (stereo partly drawn), the Kd is > 4 mM (inactive).

On to `NC(=O)c1ccc2c(c1)OCO2`, for which the Kd is > 4 mM (inactive).

In the case of `Nc1cncc(C(=O)O)c1`, the Kd was > 4 mM (inactive).

With `CC1(C)CC2C1CCC1(C)OC1CCC2(C)O` (stereo not drawn), the Kd was > 4 mM (inactive).

With `O=C1C=CC(=O)N1c1ccccc1O`, the Kd was > 4 mM (inactive).

As for `N#Cc1cccc(Cn2nnc(-c3ccccc3)n2)c1`, the Kd was > 4 mM (inactive).

On to `COC(=O)[C@]1(C)CC[C@]2(C)CC[C@]3(C)C4=CCc5c(cc(O)c(O)c5C)[C@]4(C)CC[C@@]3(C)C2C1` (stereo partly drawn), for which the Kd is > 4 mM (inactive).

As to `COc1ccc2ccc(=O)oc2c1CC=C(C)C`, the Kd was > 4 mM (inactive).

For the molecule `CCN1CCC2(CC1)CC1CC3C=CC1(CN2C(C)=O)O3` (stereo not drawn), the Kd is > 4 mM (inactive).

For the molecule `O=C(O)CCSc1nc2ccccc2s1`, the Kd was > 4 mM (inactive).

As for `CN1CCN(C(=O)c2ccccc2N)CC1`, the Kd was > 4 mM (inactive).

Consider `Cc1n[nH]c(=S)n1-c1ccc(C(=O)O)cc1`, for which the Kd is > 4 mM (inactive).

Turning to `O=C1CSC(=Nc2ccccc2[N+](=O)[O-])N1`, the Kd is > 4 mM (inactive).

`CCN(CC)S(=O)(=O)c1ccc(F)cc1`: the Kd was > 4 mM (inactive).

Consider `CC1CCN(C(=O)c2cc3ccccc3o2)CC1`, for which the Kd is > 4 mM (inactive).

As for `CC1=CC(C)C(C(=O)O)C(C(=O)N2CCN(C)CC2)C1` (stereo not drawn), the Kd was > 4 mM (inactive).

For the molecule `CC1(C)C[C@@H]2C(=O)CC[C@H]3O[C@]3(C)CC[C@H]21`, the Kd was > 4 mM (inactive).

`Nc1ncnc(NCCOCCO)c1[N+](=O)[O-]`: the Kd was > 4 mM (inactive).

Turning to `CN1CCC(N(C)C2CCN(C)CC2)CC1`, the Kd was > 4 mM (inactive).

In the case of `COc1ccc2c3c([nH]c2c1)C(C)=NCC3`, the Kd is > 4 mM (inactive).

For the molecule `CC1=NNC(=O)C1CCc1ccncc1` (stereo not drawn), the Kd was > 4 mM (inactive).

As to `Oc1ccc([C@H]2Oc3cc(O)cc(O)c3C[C@H]2O)cc1`, the Kd is > 4 mM (inactive).

On to `COc1ccccc1-c1noc(-c2ccncc2)n1`, for which the Kd was > 4 mM (inactive).

With `c1ccc2[nH]c(NCCN3CCOCC3)nc2c1`, the Kd is > 4 mM (inactive).

Consider `Cc1nn2c(-c3ccncc3)nnc2c2ccccc12`, for which the Kd was > 4 mM (inactive).

As for `CC(=O)Nc1cc(N2C(=O)C=CC2=O)ccc1Cl`, the Kd was > 4 mM (inactive).

As to `O=C(Nn1cnnc1)c1cc2c(s1)CCCCC2`, the Kd was > 4 mM (inactive).

Take `Cc1occc1C(=O)N1CCC2(CC1)OCCO2`: the Kd is > 4 mM (inactive).

`CSc1ccccc1C(=O)N1CCOCC1`: the Kd is > 4 mM (inactive).

Take `CC1(C)C=Cc2c(cc3occ(-c4ccc5c(c4)OCO5)c(=O)c3c2O)O1`: the Kd was > 4 mM (inactive).

With `CCCCCCCCCCCC[C@H](C(=O)O)[C@@H](C)C(=O)O`, the Kd is > 4 mM (inactive).

Turning to `CS(=O)(=O)N1CCN(C(=O)c2ccccc2F)CC1`, the Kd is > 4 mM (inactive).

For the molecule `COc1cc2c(cc1O)[C@@H](Cc1ccc(O)cc1)[N+](C)(C)CC2`, the Kd was > 4 mM (inactive).

As for `Cn1ncc(C(=O)O)c1-c1ccccc1`, the Kd was > 4 mM (inactive).

On to `COc1ccc(N/C(N)=N\c2nc(C)cc(C)n2)cc1`, for which the Kd is > 4 mM (inactive).

For `CC1=NN(c2ccc(C)cc2)C(=O)C1`, the Kd is > 4 mM (inactive).

As for `Nc1ncnc2nc[nH]c12`, the Kd is > 4 mM (inactive).

Take `COC(=O)c1ccc(C(=S)N2CCOCC2)cc1`: the Kd was > 4 mM (inactive).

Take `O=c1c(O)cccc2cc(O)c(O)c(O)c12`: the Kd is > 4 mM (inactive).

As to `CC12CN3CC(C)(CN(C1)C3c1cccs1)C2O` (stereo not drawn), the Kd is > 4 mM (inactive).

As for `CC(=O)c1cc(C)ccc1O`, the Kd is > 4 mM (inactive).

With `Cc1nc2nc(Cc3ccccc3)nn2c(C)c1Cl`, the Kd is > 4 mM (inactive).

In the case of `Cc1cccc(C(C)C)c1NC(=O)c1cccnc1`, the Kd was > 4 mM (inactive).

Consider `O=C(NN1C(=O)CSC1=S)c1ccccc1`, for which the Kd was > 4 mM (inactive).

As for `CC(=O)Nc1sccc1C(=O)NC(N)=O`, the Kd is > 4 mM (inactive).

With `Cc1ccccc1NC(=O)CSc1ccnc(=O)[nH]1`, the Kd is > 4 mM (inactive).

Take `O=C(Nc1ccc(N2CCOCC2)cc1)c1cnsn1`: the Kd was > 4 mM (inactive).

With `Cc1noc(C)c1C(=O)N1CCC(Cc2ccccc2)CC1`, the Kd is > 4 mM (inactive).

For the molecule `CC(=O)Nc1ccc(S(N)(=O)=O)cc1`, the Kd is > 4 mM (inactive).

In the case of `Cc1ccccc1-n1c(-c2cccnc2)n[nH]c1=S`, the Kd was > 4 mM (inactive).

For the molecule `Nc1cc(-c2ccco2)[nH]n1`, the Kd was > 4 mM (inactive).

As to `Cc1cc(C)c(C#N)c(N2CCCC2)n1`, the Kd was > 4 mM (inactive).

Regarding `O=[n+]1c(CO)c(CO)n([O-])c2ccccc21`, the Kd was > 4 mM (inactive).

As for `NC(=O)CSCc1ccc(Br)cc1`, the Kd was > 4 mM (inactive).

As for `c1ccc2c(c1)[nH]c1cnccc12`, the Kd is > 4 mM (inactive).

Consider `O=C1C2C3C=CC(C3)C2C(=O)N1c1ccccn1` (stereo not drawn), for which the Kd is > 4 mM (inactive).

Turning to `O=C(CSc1nnc2ccccn12)N1CCOCC1`, the Kd was > 4 mM (inactive).

Take `Cn1c(=O)[nH]c2nc[nH]c2c1=O`: the Kd was > 4 mM (inactive).

With `COc1ccc(NC(=O)CCCC(=O)O)c(OC)c1`, the Kd was > 4 mM (inactive).

In the case of `CN(c1ccccc1C(=O)N1CCOCC1)S(C)(=O)=O`, the Kd was > 4 mM (inactive).

`O=C(NC(O)C(=O)c1ccccc1)c1ccco1` (stereo not drawn): the Kd was > 4 mM (inactive).

In the case of `Cc1cc(C)n2nc(C(=O)NCc3ccco3)nc2n1`, the Kd was > 4 mM (inactive).

As for `Fc1ccc2onc(C3CCNCC3)c2c1`, the Kd is > 4 mM (inactive).

As to `NC(=O)CN=Cc1c(O)[nH]c2ccccc12`, the Kd is > 4 mM (inactive).

On to `Cc1cc(O)c(C)c(O)c1C(=O)O`, for which the Kd is > 4 mM (inactive).

For `O=S1(=O)CCC(NC(=S)Nc2ccccc2)C1` (stereo not drawn), the Kd is > 4 mM (inactive).

Take `CC1(C)CC[C@]2(C(=O)O)CC[C@]3(C)C(=CCC4[C@@]5(C)CC[C@H](O)[C@@](C)(CO)C5CC[C@]43C)C2C1` (stereo partly drawn): the Kd was > 4 mM (inactive).

Turning to `O=C(NCc1ccc2c(c1)OCO2)c1cccs1`, the Kd is > 4 mM (inactive).

On to `O=C(COc1ccccc1Cl)N1CCCC1`, for which the Kd was > 4 mM (inactive).

The values are drawn from PubChem BioAssay AID1648 (Sanford-Burnham Center for Chemical Genomics, 2009).
